Experimental data: patent US12331024B2, “Substituted naphthyl P38alpha mitogen-activated protein kinase inhibitors” (GEN1E LIFESCIENCES INC., priority 2021, dated 2025)

Experiments:
Assay type in all cases: in vivo
[1] = Pharmacokinetics, mouse study: plasma AUCinf of metabolites after dosing Compound (4); conditions: female CD-1 mice, single intraperitoneal dose of 1 mg/mouse of Compound (4), metabolite AUCinf relative to Compound (4)
Method: (§1) The pharmacokinetics of Compounds (1)-(4) was determined in mice, rats, and monkeys.
Female CD-1 mice (n=9) received a single intraperitoneal dose of 1 mg/mouse of Compound (4). The dosing formulation was prepared prior to dose, with 2 mg/mL of Compound (4) in 4% DMSO and 96% PBS. Blood samples were collected from the mice at designated timepoints. Following collection, samples were centrifuged (2500 rpm for 10 minutes at 4° C.) and the resulting plasma was recovered and stored frozen (−60° C.).
Bioanalysis of the plasma samples was performed for Compounds (1)-(4). Mouse plasma samples were extracted by protein precipitation and analyzed by UPLC-MSMS using a Waters UPLC and API 5000® triple quadrupole mass spectrometer (AB Sciex, Toronto, Canada) with a Waters Acquity® UPLC BEH C18 column (50 mm×2.1 mm, 1.7 μm particle size). Acquisition and chromatographic peak integration were performed using Analyst® 1.7 Software. The standard curve regression and quantification of analytes in the samples was performed using the Analyst® Software.
Pharmacokinetic parameters were calculated based on the plasma concentration data for Compound (4) and the metabolites Compound (1)-(3) by non-compartmental methods using WinNonlin® Software, version 8.1 (Certara®, Inc). The area under the concentration time curve (AUCinf) was calculated for Compounds (1)-(4). The percent AUCinf (% AUCinf) for each metabolite was calculated as the ratio of the AUCinf for each respective metabolite divided by the AUCinf for Compound (4).

[2] = Pharmacokinetics, rat study: plasma AUCinf of metabolites after dosing Compound (4); conditions: male Sprague-Dawley rats, single intravenous bolus dose of 10 mg/kg Compound (4), metabolite AUCinf relative to Compound (4)
Method: as §1
Male Sprague-Dawley rats (n=3) received a single intravenous bolus dose of 10 mg/kg Compound (4). The dosing formulation was prepared by prior to dosing, with 5 mg/mL of Compound (4) in 14% sulphobutylether-β-cyclodextrin (SBECD) in deionized water (w/v). Blood samples were collected from each rat at designated timepoints. Following collection, the samples were centrifuged (2500 rpm for 10 minutes at approximately 4° C.) and the resulting plasma was recovered and stored frozen (−60° C.).
Bioanalysis of the samples was performed for Compounds (1)-(4). Rat plasma samples were extracted by protein precipitation and analyzed by UPLC-MSMS using a Waters UPLC and API 5000® triple quadrupole mass spectrometer (AB Sciex, Toronto, Canada) with a Waters Acquity® UPLC BEH C18 column (50 mm×2.1 mm, 1.7 μm particle size). Acquisition and chromatographic peak integration were performed using Analyst® 1.7 Software. The standard curve regression and quantification of analytes in the samples was performed using the Analyst® Software.
Pharmacokinetic parameters were calculated from the plasma concentration data for Compound (4) and the metabolites Compounds (1)-(3) by non-compartmental methods using WinNonlin® Software, version 8.1 (Certara®, Inc). The area under the concentration time curve (AUCinf) was calculated for Compounds (1)-(4). The percent AUCinf for the metabolites was calculated as the ratio of the AUCinf for each respective metabolite divided by the AUCinf for Compound (4).

[3] = Pharmacokinetics, monkey study: plasma AUCinf of metabolites after dosing Compound (4); conditions: male cynomolgus monkeys, single 2 hour intravenous infusion of 5 mg/kg Compound (4), metabolite AUCinf relative to Compound (4)
Method: as §1
Male cynomolgus monkeys (n=3) received a single intravenous infusion over a period of 2 hours at a dose of 5 mg/kg Compound (4) (2.5 mL/kg/hour). The dosing formulation was prepared prior to dose, with 1 mg/mL of Compound (4) in 14% sulphobutylether-β-cyclodextrin (SBECD) in deionized water (w/v). Blood samples were collected from each monkey at designated timepoints. Following collection, the samples were centrifuged (2500 rpm for 10 minutes at 4° C.) and the resulting plasma was recovered and stored frozen (−60° C.).
Bioanalysis of samples was performed for Compounds (1)-(4). The monkey plasma samples were extracted by protein precipitation and analyzed by UPLC-MSMS using a Waters UPLC and API 5000® triple quadrupole mass spectrometer (AB Sciex, Toronto, Canada) with an ACE® Excel® 2 C18 column (50 mm×3.0 mm, 2 μm particle size) or a Waters Acquity® UPLC BEH C18 column (50 mm×2.1 mm, 1.7 μm). Acquisition and chromatographic peak integration were performed using Analyst® Software, version 1.6.3. The standard curve regression and quantification of analytes in the samples was performed using Watson LIMS® Software, version 7.4.1 (Thermo Fisher Scientific, Philadelphia, USA) or the Analyst® Software.
Pharmacokinetic parameters were calculated from plasma concentration data for Compound (4) and its metabolites by non-compartmental methods using WinNonlin® Software, version 8.1 (Certara®, Inc). The area under the concentration time curve (AUCinf) was calculated for Compounds (1)-(4). The percent AUCinf for each of the metabolites was calculated as the ratio of the AUCinf of each respective metabolite divided by the AUCinf of Compound (4).

Row | Structure (SMILES) | % AUCinf (100×AUCmetabolite/AUCCompound(4)) [1] | % AUCinf (100×AUCmetabolite/AUCCompound(4)) [2] | % AUCinf (100×AUCmetabolite/AUCCompound(4)) [3]
1 | CNc1cccc2c(S(=O)(=O)Nc3ccc(CN4CCOCC4)cc3)cccc12 [Compound (1), 5-(methylamino)-N-(4-(morpholinomethyl)phenyl)naphthalene-1-sulfonamide] | 31% | 9% | 64%
2 | CNc1cccc2c(S(=O)(=O)Nc3ccc(CN4CCOCC4=O)cc3)cccc12 [Compound (2), 5-(methylamino)-N-(4-((3-oxomorpholino)methyl)phenyl)naphthalene-1-sulfonamide] | 10% | 48% | 132%
3 | CN(C)c1cccc2c(S(=O)(=O)Nc3ccc(CN4CCOCC4=O)cc3)cccc12 [Compound (3), 5-(dimethylamino)-N-(4-((3-oxomorpholino)methyl)phenyl)naphthalene-1-sulfonamide] | 9% | 11% | 7%
